Experimental data published in US9328099B2, “Cyanomethylpyrazole carboxamides as janus kinase inhibitors” (Merck Sharp & Dohme Corp., priority 2011, dated 2016).
pIC50: −log10 of the molar value.

Columns and labels:
JAK2 = JAK2 (Homo sapiens (Human), UniProt O60674); assay: Jak Biochemical HTRF Assay, JAK2; details: HTRF biochemical assay, GST-tagged catalytic domain; top concentration tested […]
Text: (§1) Jak Biochemical HTRF Assay Protocol
(§2) Subsequent reagent additions employed an Agilent Bravo.

JAK1 = JAK1 (Homo sapiens (Human), UniProt P23458); assay: Jak Biochemical HTRF Assay, JAK1; details: HTRF biochemical assay, GST-tagged catalytic domain; top concentration tested […]; read-out: JAK1 IC50
Chain of JAK1 (P23458 875-1153): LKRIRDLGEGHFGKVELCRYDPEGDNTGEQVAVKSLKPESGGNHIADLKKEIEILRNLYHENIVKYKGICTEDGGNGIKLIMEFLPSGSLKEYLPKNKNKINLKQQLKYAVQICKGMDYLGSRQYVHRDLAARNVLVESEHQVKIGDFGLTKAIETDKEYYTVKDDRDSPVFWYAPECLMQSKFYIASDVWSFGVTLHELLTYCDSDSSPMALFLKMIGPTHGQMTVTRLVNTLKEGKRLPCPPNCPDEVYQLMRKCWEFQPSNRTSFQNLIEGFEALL
Text: as §1, §2

Chain of JAK2 (O60674 849-1124): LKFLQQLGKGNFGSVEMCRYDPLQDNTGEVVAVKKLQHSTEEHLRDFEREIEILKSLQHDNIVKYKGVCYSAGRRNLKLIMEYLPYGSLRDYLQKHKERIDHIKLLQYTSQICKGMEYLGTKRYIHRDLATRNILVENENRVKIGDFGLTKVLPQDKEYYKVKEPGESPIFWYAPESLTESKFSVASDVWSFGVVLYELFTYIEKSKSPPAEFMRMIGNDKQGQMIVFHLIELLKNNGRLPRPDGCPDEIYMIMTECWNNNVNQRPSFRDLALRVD

CN(CCS(C)(=O)=O)C1CCC(CC#N)(n2cc(C(N)=O)c(Nc3ccc(F)cc3)n2)CC1 (stereo not drawn) [Example 40-72, Cis or trans 1-[1-(cyanomethyl)-4-{methyl[2-(methylsulfonyl)ethyl]amino}cyclohexyl]-3-[(4-fluorophenyl)amino]-1H-pyrazole-4-carboxamide]
pIC50 (JAK2): 7.43
pIC50 (JAK1): 9.00

N#CCC1(n2cc(C(N)=O)c(Nc3ccc(F)cc3)n2)CCC(Nc2ccc(C(F)(F)F)cc2)CC1 (stereo not drawn) [Example 40-73, Cis or trans 1-[1-(cyanomethyl)-4-{[4-(trifluoromethyl)phenyl]amino}cyclohexyl]-3-[(4-fluorophenyl)amino]-1H-pyrazole-4-carboxamide]
pIC50 (JAK2): < 5.83
pIC50 (JAK1): 6.86

COC1CN(C2CCC(CC#N)(n3cc(C(N)=O)c(Nc4ccc(F)cc4)n3)CC2)C1 (stereo not drawn) [Example 40-74, Cis or trans 1-[1-(cyanomethyl)-4-(3-methoxyazetidin-1-yl)cyclohexyl]-3-[(4-fluorophenyl)amino]-1H-pyrazole-4-carboxamide]
pIC50 (JAK2): 7.46
pIC50 (JAK1): 9.00

N#CCC1(n2cc(C(N)=O)c(Nc3ccc(F)cc3)n2)CCC(Nc2cccnc2)CC1 (stereo not drawn) [Example 40-75, Cis or trans 1-[1-(cyanomethyl)-4-(pyridin-3-ylamino)cyclohexyl]-3-[(4-fluorophenyl)amino]-1H-pyrazole-4-carboxamide]
pIC50 (JAK2): 8.15
pIC50 (JAK1): 9.70

CC(=O)N1CCN(C2CCC(CC#N)(n3cc(C(N)=O)c(Nc4ccc(F)cc4)n3)CC2)CC1 (stereo not drawn) [Example 40-76, Cis or trans 1-[4-(4-acetylpiperazin-1-yl)-1-(cyanomethyl)cyclohexyl]-3-[(4-fluorophenyl)amino]-1H-pyrazole-4-carboxamide]
pIC50 (JAK2): 6.65
pIC50 (JAK1): 7.89

N#CCC1(n2cc(C(N)=O)c(Nc3ccc(F)cc3)n2)CCC(NCC(F)F)CC1 (stereo not drawn) [Example 40-77, Cis or trans 1-{1-(cyanomethyl)-4-[(2,2-difluoroethyl)amino]cyclohexyl}-3-[(4-fluorophenyl)amino]-1H-pyrazole-4-carboxamide]
pIC50 (JAK2): 7.89
pIC50 (JAK1): 9.15

N#CCC1(n2cc(C(N)=O)c(Nc3ccc(F)cc3)n2)CCC(NCCF)CC1 (stereo not drawn) [Example 40-79, Cis or trans 1-{1-(cyanomethyl)-4-[(2-fluoroethyl)amino]cyclohexyl}-3-[(4-fluorophenyl)amino]-1H-pyrazole-4-carboxamide]
pIC50 (JAK2): 6.88
pIC50 (JAK1): 8.10

N#CCC1(n2cc(C(N)=O)c(Nc3ccc(F)cc3)n2)CCC(N2CCC2)CC1 (stereo not drawn) [Example 40-80, Cis or trans 1-[4-azetidin-1-yl-1-(cyanomethyl)cyclohexyl]-3-[(4-fluorophenyl)amino]-1H-pyrazole-4-carboxamide]
pIC50 (JAK2): 6.49
pIC50 (JAK1): 7.85

COC1CN(C2CCC(CC#N)(n3cc(C(N)=O)c(Nc4ccnc(F)c4)n3)CC2)C1 (stereo not drawn) [Example 40-81, Cis or trans 1-[1-(cyanomethyl)-4-(3-methoxyazetidin-1-yl)cyclohexyl]-3-[(2-fluoropyridin-4-yl)amino]-1H-pyrazole-4-carboxamide]
pIC50 (JAK2): 8.30
pIC50 (JAK1): 10.00

N#CCC1(n2cc(C(N)=O)c(Nc3ccnc(F)c3)n2)CCC(N2CC(F)C2)CC1 (stereo not drawn) [Example 40-82, Cis or trans 1-[1-(cyanomethyl)-4-(3-fluoroazetidin-1-yl)cyclohexyl]-3-[(2-fluoropyridin-4-yl)amino]-1H-pyrazole-4-carboxamide]
pIC50 (JAK2): 6.35
pIC50 (JAK1): 7.59

N#CCC1(n2cc(C(N)=O)c(Nc3ccc(S(=O)(=O)C(F)F)cc3)n2)CCC(NCC(F)F)CC1 (stereo not drawn) [Example 40-84, Cis or trans 1-{1-(cyanomethyl)-4-[(2,2-difluoroethyl)amino]cyclohexyl}-3-({4-[(difluoromethyl)sulfonyl]phenyl}amino)-1H-pyrazole-4-carboxamide]
pIC50 (JAK2): 8.52
pIC50 (JAK1): 10.40
